pKi: −log10 of the molar value.
Target: Bifunctional dihydrofolate reductase-thymidylate synthase (Plasmodium falciparum K1, UniProt P13922)
Assay: Inhibition constant against Plasmodium falciparum dihydrofolate reductase

Bifunctional dihydrofolate reductase-thymidylate synthase, sequence (P13922 whole entry): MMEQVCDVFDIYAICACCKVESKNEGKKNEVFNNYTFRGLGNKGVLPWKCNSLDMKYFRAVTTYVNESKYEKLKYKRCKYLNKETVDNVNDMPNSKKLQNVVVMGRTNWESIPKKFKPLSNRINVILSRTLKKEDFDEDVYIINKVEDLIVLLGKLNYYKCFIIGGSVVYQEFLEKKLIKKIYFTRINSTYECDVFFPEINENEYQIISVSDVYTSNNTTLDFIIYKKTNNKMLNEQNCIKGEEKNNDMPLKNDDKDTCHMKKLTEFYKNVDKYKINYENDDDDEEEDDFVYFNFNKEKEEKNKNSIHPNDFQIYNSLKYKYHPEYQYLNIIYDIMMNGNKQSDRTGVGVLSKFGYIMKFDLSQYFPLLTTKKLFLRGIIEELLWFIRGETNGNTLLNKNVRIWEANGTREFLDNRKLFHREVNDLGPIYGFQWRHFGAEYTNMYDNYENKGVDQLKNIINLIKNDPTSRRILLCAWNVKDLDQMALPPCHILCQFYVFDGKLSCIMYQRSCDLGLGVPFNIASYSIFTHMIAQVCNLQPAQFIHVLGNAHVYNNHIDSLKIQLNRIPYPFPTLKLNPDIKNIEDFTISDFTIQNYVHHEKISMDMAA

In the case of `CC1(C)N=C(N)N=C(N)N1OCCCOc1cc(Cl)c(Cl)cc1Cl`, the pKi was 8.96.
Work on `Cc1cc2nc3n(c2cc1C)C(C)(C)NC(N)=N3` yielded a pKi of 6.74.
`N=C(NO)c1ccc(Oc2cc(Cl)cc(Cl)c2)c([N+](=O)[O-])c1` was tested, and the pKi was 5.77.
`Cc1nc(N)nc(N)c1-c1ccc(Cl)cc1` was tested, and the pKi was 9.08.
`COC(=O)CCCc1nc(N)nc(N)c1-c1ccccc1` showed a pKi of 8.00.
`Cc1nc(N)nc(N)c1-c1ccccc1` gave a pKi of 6.96.
With `Nc1ncc(-c2cccc(Cl)c2)c(N)n1` the pKi was 7.12.
Molecule `Nc1ncc(-c2ccccc2)c(N)n1` has a pKi of 7.00.
Work on `Nc1nc(N)c(-c2ccc(Cl)cc2)c(CCCc2ccccc2)n1` yielded a pKi of 9.13.
Work on `CCc1nc(N)nc(N)c1-c1ccc(C)cc1` yielded a pKi of 8.96.
In the case of `CCc1nc(N)nc(N)c1-c1ccc(C(C)(C)C)cc1`, the pKi was 9.11.
`Nc1nc(N)c(-c2cccc(Cl)c2)c(CCCc2ccccc2)n1` was tested, and the pKi was 7.38.
Work on `Cc1nc(N)nc(N)c1-c1cccc(Cl)c1` yielded a pKi of 7.08.
Molecule `CCc1nc(N)nc(N)c1-c1ccc(OCc2ccc(Cl)cc2Cl)c(OC)c1` has a pKi of 8.02.
`CCc1nc(N)nc(N)c1-c1ccccc1` was tested, and the pKi was 7.00.
For `CCOc1c(Br)cc(-c2c(N)nc(N)nc2CC)cc1Br`, the pKi was 7.43.
`CCc1nc(N)nc(N)c1-c1ccc(Cl)cc1Cl` was tested, and the pKi was 9.04.
Work on `Nc1nc(N)c(-c2cccc(Cl)c2)c(CCOCCCOc2ccccc2)n1` yielded a pKi of 7.89.
`COC(=O)CCCc1nc(N)nc(N)c1-c1ccc(Cl)cc1` showed a pKi of 9.85.
`COc1ccc(CCCc2nc(N)nc(N)c2-c2cccc(Cl)c2)cc1` showed a pKi of 7.96.
`CCc1nc(N)nc(N)c1-c1cccc(Cl)c1` showed a pKi of 7.14.
In the case of `Nc1ncc(-c2ccc(Cl)cc2)c(N)n1`, the pKi was 9.13.
`CCc1nc(N)nc(N)c1-c1ccc(-c2ccccc2)cc1` gave a pKi of 7.05.
Molecule `CCc1nc(N)nc(N)c1-c1ccc(OC)cc1` has a pKi of 8.89.
In the case of `CCc1nc(N)nc(N)c1-c1ccc(Br)cc1`, the pKi was 9.08.
For `CCc1nc(N)nc(N)c1-c1cccc(OC)c1`, the pKi was 7.44.
With `C/N=C(\S)NNC(=O)c1cccn(Cc2cccc(Cl)c2)c1=O` the pKi was 6.05.
`Cc1[nH]c(N)cc2nc3ccccc3c1-2` showed a pKi of 5.64.
`N/C(=N/O)c1ccc(Oc2c(Cl)cncc2Cl)cc1` showed a pKi of 6.03.
For `CCCCCCc1nc(N)nc(N)c1-c1ccccc1`, the pKi was 8.00.
Molecule `CCc1nc(N)nc(N)c1-c1ccc2c(c1)OCO2` has a pKi of 7.14.
`CC1(C)N=C(N)N=C(N)N1c1ccc(Br)cc1` was tested, and the pKi was 8.92.
`CC1(C)N=C(N)N=C(N)N1c1ccccc1` was tested, and the pKi was 6.85.
`CC1(C)N=C(N)N=C(N)N1c1ccc(F)cc1` showed a pKi of 6.77.
`NC1=NCN(c2ccc(Cl)cc2)C(N)=N1` gave a pKi of 9.08.
`NC1=NCN(c2ccccc2)C(N)=N1` was tested, and the pKi was 7.07.
In the case of `NC1=NCN(c2ccc(F)cc2)C(N)=N1`, the pKi was 7.06.
`N=C(S)N/N=C/c1ccc(Oc2ncc(C(F)(F)F)cc2Cl)cc1` gave a pKi of 5.05.
`N=C(NO)c1ccc(CNC(=O)c2ccc(Cl)cc2)cc1` gave a pKi of 5.82.
`NNc1nc2ccccc2nc1NN` was tested, and the pKi was 5.07.
With `N/C(=N\O)c1cccc(CS(=O)(=O)c2ccc(Cl)cc2)c1` the pKi was 6.10.
`C=CCNC(=S)NNC(=O)c1cccn(Cc2cccc(Cl)c2)c1=O` gave a pKi of 6.39.
`COC(=O)c1sccc1-c1ccc(/C(C)=N/NC(N)=O)o1` gave a pKi of 4.70.
Molecule `N/N=C(\S)Nc1ccc(OCc2ccccc2)cc1` has a pKi of 5.70.
`C/C(=N\N=C(/N)S)c1ccc(Oc2c(Cl)cncc2Cl)cc1` was tested, and the pKi was 5.85.
`CC1(C)N=C(N)N=C(N)N1c1ccc(Cl)c(Cl)c1` [CHLORCYCLOGUANIL] was tested, and the pKi was 8.96.
With `CC1(C)N=C(N)N=C(N)N1c1ccc(Cl)cc1` [CYCLOGUANIL] the pKi was 8.96.
With `CCc1nc(N)nc(N)c1-c1ccc(Cl)c(Cl)c1` [ETOPRINE] the pKi was 9.10.
Work on `NC(=S)N/N=C/c1ccccc1` [PHENYLTHIOSEMICARBAZONE] yielded a pKi of 4.51.

Source: ChEMBL document CHEMBL1138679, “Three-dimensional quantitative structure-activity relationship analysis of a set of Plasmodium falciparum dihydrofolate reductase inhibitors using a pharmacophore generation approach” (J Med Chem, 2004)
